We go through 4 compounds from patent US20220306695A1, “COMPSTATIN ANALOGUES AND THEIR MEDICAL USES” (priority 2019, published 2022).

pIC50: −log10 of the molar value. Where two headings read alike, the source gives them in different places. Positions of bridges follow the written chain, without caps; N, C: chain ends. Non-standard residues stand in square brackets, D forms with d. Residues, ends and D or L forms follow the SMILES beside them. Trp(1-Me) = Cn1cc(C[C@H](N)C(=O)O)c2ccccc21; Sar = CNCC(=O)O

Series [1] is described as follows: Solubility test at 10 mg/mL (visual inspection and light scattering). The format is physicochemical. To be noted: for Solubility, Condition 1 Acetate pH 4: 10 mg/mL compound in 100 mM acetate pH 4; for Solubility, Condition 2 Acetate pH 5: 10 mg/mL compound in 100 mM acetate pH 5; for Solubility, Condition 3 Phosphate pH 6: 10 mg/mL compound in 100 mM phosphate pH 6; for Solubility, Condition 4 Phosphate pH 7: 10 mg/mL compound in 100 mM phosphate pH 7; for Solubility, Condition 5 Phosphate pH 7.5: 10 mg/mL compound in 100 mM phosphate pH 7.5. As for the experimental part:
The solubility of compounds was assessed by measuring light scattering over a pH interval from pH 4 to pH 7.5.
Compounds were dissolved in a stock solution of 20 mg/mL in H2O at pH 2.5 or pH 10.
These stock solutions were diluted 1:1 with 200 mM buffered solution to reach a final solution of 10 mg/mL compound in 100 mM buffer. The 5 investigated conditions were (1) acetate pH 4.0, (2) acetate pH 5.0, (3) phosphate pH 6.0, (4) phosphate pH 7 and (5) phosphate pH 7.5.
Visual inspection included manually checking the 96 well plate for wells that are clear or non-clear. In addition to this a picture of the 96 well plate is taken.
Absorbance was measured at four wavelengths: 280 nm, 325 nm, 340 nm and 360 nm in an UV transparent 96 well microplate in a SpectraMax 190 microplate reader (Molecular Devices).
The criteria for this was a combination of visual inspection and light scattering not exceeding 0.1 AU, where values below 0.1 AU are good in visually clear samples. […]

Series [2] concerns classical complement pathway. Put plainly: In vitro haemolysis assay (inhibition of classical complement pathway). To be noted: for IC50: Table 3, human serum, sensitized sheep red blood cells, read-out: IC50[nM], in vitro analysis of inhibition of hemolysis. The format is cell-based, human. Put shortly:
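Serially diluted compound (9 points) was preincubated 15 min at room temperature with diluted human serum, titrated per batch to give 70-90% maximal haemolysis, in Tris/casein buffer pH 7.4 with Mg2+/Ca2+. Antibody-sensitized sheep erythrocytes were then added for 30 min at 37° C, and the reaction was stopped with EDTA. Haemolysis was read at A405, with IC50 from 4PL fit.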

As to `CC[C@H](C)[C@H](NC(=O)[C@H](C)NC(=O)[C@H](CO)NC(=O)[C@H](CO)NC(=O)[C@H](CCC(=O)O)NC(C)=O)C(=O)N[C@H]1CSSC[C@@H](C(=O)N[C@H](C(N)=O)[C@@H](C)O)NC(=O)[C@H](CCCNC(=N)N)NC(=O)[C@H](Cc2c[nH]cn2)NC(=O)[C@H](CCC(=O)O)NC(=O)CNC(=O)[C@H](Cc2c[nH]c3ccccc23)NC(=O)[C@H](CC(=O)O)NC(=O)[C@H](CCC(N)=O)NC(=O)[C@H](Cc2c[nH]c3ccccc23)NC(=O)[C@H]([C@@H](C)CC)NC1=O` [Compound 3] (Ac-ESSAICIWQDWGEHRCT-NH2; disulfide 6-16), in series [1], the “Solubility, Condition 1 Acetate pH 4” value was “+ (denotes solubility at the given condition, as determined by UV absorbance being less than 0.1 AU at 340 nm and the sample being clear when manually inspected.)”; the “Solubility, Condition 2 Acetate pH 5” value is recorded as “− (denotes lack of solubility at the given condition, as UV absorbance at 340 nm exceeds 0.1 AU and/or it is visibly turbid or contains particles.)”; the “Solubility, Condition 3 Phosphate pH 6” value was “− (denotes lack of solubility at the given condition, as UV absorbance at 340 nm exceeds 0.1 AU and/or it is visibly turbid or contains particles.)”; the “Solubility, Condition 4 Phosphate pH 7” value was “+ (denotes solubility at the given condition, as determined by UV absorbance being less than 0.1 AU at 340 nm and the sample being clear when manually inspected.)”. Also, the “Solubility, Condition 5 Phosphate pH 7.5” value in series [1] is “+ (denotes solubility at the given condition, as determined by UV absorbance being less than 0.1 AU at 340 nm and the sample being clear when manually inspected.)”. Besides, the IC50 (commonly the concentration needed to halve the response being measured) in series [2] is < 100 nM. The pIC50 (usually the negative decadic logarithm of the IC50, by convention in mol/L) in series [2] (Table 4, valine 3 versus isoleucine 3 pairs, read-out: CP hemolysis IC50) was 7.16.

As to `CC[C@H](C)[C@H](NC(=O)[C@H](C)NC(=O)[C@H](CO)NC(=O)[C@H](CO)NC(=O)[C@H](CCC(=O)O)NC(C)=O)C(=O)N[C@H]1CSSC[C@@H](C(=O)N[C@H](C(=O)NCC(=O)N[C@@H](C)C(=O)N[C@@H](CCC(=O)O)C(=O)N[C@@H](CO)C(N)=O)[C@@H](C)O)NC(=O)[C@H](CCCNC(=N)N)NC(=O)[C@H](Cc2c[nH]cn2)NC(=O)[C@H](CCC(=O)O)NC(=O)CNC(=O)[C@H](Cc2c[nH]c3ccccc23)NC(=O)[C@H](CC(=O)O)NC(=O)[C@H](CCC(N)=O)NC(=O)[C@H](Cc2c[nH]c3ccccc23)NC(=O)[C@H]([C@@H](C)CC)NC1=O` [Compound 14] (Ac-ESSAICIWQDWGEHRCTGAES-NH2; disulfide 6-16), in series [1], the “Solubility, Condition 1 Acetate pH 4” value was “+ (denotes solubility at the given condition, as determined by UV absorbance being less than 0.1 AU at 340 nm and the sample being clear when manually inspected.)”; the “Solubility, Condition 2 Acetate pH 5” value is “− (denotes lack of solubility at the given condition, as UV absorbance at 340 nm exceeds 0.1 AU and/or it is visibly turbid or contains particles.)”; the “Solubility, Condition 3 Phosphate pH 6” value is reported as “− (denotes lack of solubility at the given condition, as UV absorbance at 340 nm exceeds 0.1 AU and/or it is visibly turbid or contains particles.)”; the “Solubility, Condition 4 Phosphate pH 7” value was “+ (denotes solubility at the given condition, as determined by UV absorbance being less than 0.1 AU at 340 nm and the sample being clear when manually inspected.)”. In addition, the “Solubility, Condition 5 Phosphate pH 7.5” value in series [1] is “+ (denotes solubility at the given condition, as determined by UV absorbance being less than 0.1 AU at 340 nm and the sample being clear when manually inspected.)”. Moreover, the IC50 in series [2] was < 100 nM.

With `CC[C@H](C)[C@@H]1NC(=O)[C@@H](NC(=O)[C@H](Cc2ccccc2)NC(=O)[C@H](CCC(=O)O)NC(=O)[C@H](CO)NC(C)=O)CSSC[C@@H](C(=O)N(C)CC(=O)NCC(=O)N[C@@H](C)C(=O)N[C@@H](CCC(=O)O)C(=O)N[C@@H](CO)C(N)=O)NC(=O)[C@H](CCCNC(=N)N)NC(=O)[C@H](Cc2c[nH]cn2)NC(=O)[C@H](CCC(=O)O)NC(=O)CNC(=O)[C@H](Cc2c[nH]c3ccccc23)NC(=O)[C@H](CC(=O)O)NC(=O)[C@H](CCC(N)=O)NC(=O)[C@H](Cc2cn(C)c3ccccc23)NC1=O` [Compound 74] (Ac-SEFCI[Trp(1-Me)]QDWGEHRC[Sar]GAES-NH2; disulfide 4-14), in series [1], the “Solubility, Condition 1 Acetate pH 4” value is reported as “− (denotes lack of solubility at the given condition, as UV absorbance at 340 nm exceeds 0.1 AU and/or it is visibly turbid or contains particles.)”; the “Solubility, Condition 2 Acetate pH 5” value is “+ (denotes solubility at the given condition, as determined by UV absorbance being less than 0.1 AU at 340 nm and the sample being clear when manually inspected.)”; the “Solubility, Condition 3 Phosphate pH 6” value is “+ (denotes solubility at the given condition, as determined by UV absorbance being less than 0.1 AU at 340 nm and the sample being clear when manually inspected.)”; the “Solubility, Condition 4 Phosphate pH 7” value was “+ (denotes solubility at the given condition, as determined by UV absorbance being less than 0.1 AU at 340 nm and the sample being clear when manually inspected.)”. For the same compound, the “Solubility, Condition 5 Phosphate pH 7.5” value in series [1] is “+ (denotes solubility at the given condition, as determined by UV absorbance being less than 0.1 AU at 340 nm and the sample being clear when manually inspected.)”. In series [2], the IC50 is < 100 nM.

Turning to `CC[C@H](C)[C@@H]1NC(=O)[C@@H](NC(=O)[C@H](Cc2ccccc2)NC(=O)[C@H](N)Cc2ccc(O)cc2)CSSC[C@@H](C(=O)N[C@H](C(=O)NCC(=O)N[C@@H](C)C(=O)N[C@@H](CCC(=O)O)C(=O)N[C@@H](CO)C(N)=O)[C@@H](C)O)NC(=O)[C@H](CCCNC(=N)N)NC(=O)[C@H](Cc2c[nH]cn2)NC(=O)[C@H](CCC(=O)O)NC(=O)CN(C)C(=O)[C@H](Cc2c[nH]c3ccccc23)NC(=O)[C@H](CC(=O)O)NC(=O)[C@H](CCC(N)=O)NC(=O)[C@H](Cc2cn(C)c3ccccc23)NC1=O` [Compound 73, H-{d}YFC(1)I[1-Me-Trp]QDW[Sar]EHRC(1)TGAES-NH2] (H-[dY]FCI[Trp(1-Me)]QDW[Sar]EHRCTGAES-NH2; disulfide 3-13), in series [1], the “Solubility, Condition 1 Acetate pH 4” value was “+ (denotes solubility at the given condition, as determined by UV absorbance being less than 0.1 AU at 340 nm and the sample being clear when manually inspected.)”; the “Solubility, Condition 2 Acetate pH 5” value is “− (denotes lack of solubility at the given condition, as UV absorbance at 340 nm exceeds 0.1 AU and/or it is visibly turbid or contains particles.)”; the “Solubility, Condition 3 Phosphate pH 6” value was “− (denotes lack of solubility at the given condition, as UV absorbance at 340 nm exceeds 0.1 AU and/or it is visibly turbid or contains particles.)”; the “Solubility, Condition 4 Phosphate pH 7” value is “+ (denotes solubility at the given condition, as determined by UV absorbance being less than 0.1 AU at 340 nm and the sample being clear when manually inspected.)”. Besides, the “Solubility, Condition 5 Phosphate pH 7.5” value in series [1] is “+ (denotes solubility at the given condition, as determined by UV absorbance being less than 0.1 AU at 340 nm and the sample being clear when manually inspected.)”. Also, in series [2], the IC50 is < 100 nM.
